Experimental data as given in US20260125400A1, “TYK2 DEGRADERS AND USES THEREOF” (Kymera Therapeutics, Inc., priority 2023, published 2026).
Where two headings read alike, the source gives them in different places.

Biological target: T1, TYK2 (Homo sapiens, UniProt P29597)
T1 construct: Degradation of TYK2 in cells was quantitatively measured using Meso Scale Discovery (MSD) technology; endogenous in cells; host or cells: OCI-LY10
Test: TYK2 MSD degradation in OCI-LY10 cells
Type: cell-based
Conditions: 4 to 24 hours incubation; for DC50: read-out: TYK2 MSD OCI-LY10 Rel-DC50
Summary of the method: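 Cellular TYK2 levels were measured by Meso Scale Discovery sandwich detection in RIPA lysates of OCI-LY10 cells exposed 4 to 24 hours at 37° C to nine 1:3 compound doses starting at 1 to 10 μM final; dose-response fitted by four-parameter regression.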

[1] = TYK2 degradation in OCI-LY10 cells

T1 sequence (P29597 whole entry): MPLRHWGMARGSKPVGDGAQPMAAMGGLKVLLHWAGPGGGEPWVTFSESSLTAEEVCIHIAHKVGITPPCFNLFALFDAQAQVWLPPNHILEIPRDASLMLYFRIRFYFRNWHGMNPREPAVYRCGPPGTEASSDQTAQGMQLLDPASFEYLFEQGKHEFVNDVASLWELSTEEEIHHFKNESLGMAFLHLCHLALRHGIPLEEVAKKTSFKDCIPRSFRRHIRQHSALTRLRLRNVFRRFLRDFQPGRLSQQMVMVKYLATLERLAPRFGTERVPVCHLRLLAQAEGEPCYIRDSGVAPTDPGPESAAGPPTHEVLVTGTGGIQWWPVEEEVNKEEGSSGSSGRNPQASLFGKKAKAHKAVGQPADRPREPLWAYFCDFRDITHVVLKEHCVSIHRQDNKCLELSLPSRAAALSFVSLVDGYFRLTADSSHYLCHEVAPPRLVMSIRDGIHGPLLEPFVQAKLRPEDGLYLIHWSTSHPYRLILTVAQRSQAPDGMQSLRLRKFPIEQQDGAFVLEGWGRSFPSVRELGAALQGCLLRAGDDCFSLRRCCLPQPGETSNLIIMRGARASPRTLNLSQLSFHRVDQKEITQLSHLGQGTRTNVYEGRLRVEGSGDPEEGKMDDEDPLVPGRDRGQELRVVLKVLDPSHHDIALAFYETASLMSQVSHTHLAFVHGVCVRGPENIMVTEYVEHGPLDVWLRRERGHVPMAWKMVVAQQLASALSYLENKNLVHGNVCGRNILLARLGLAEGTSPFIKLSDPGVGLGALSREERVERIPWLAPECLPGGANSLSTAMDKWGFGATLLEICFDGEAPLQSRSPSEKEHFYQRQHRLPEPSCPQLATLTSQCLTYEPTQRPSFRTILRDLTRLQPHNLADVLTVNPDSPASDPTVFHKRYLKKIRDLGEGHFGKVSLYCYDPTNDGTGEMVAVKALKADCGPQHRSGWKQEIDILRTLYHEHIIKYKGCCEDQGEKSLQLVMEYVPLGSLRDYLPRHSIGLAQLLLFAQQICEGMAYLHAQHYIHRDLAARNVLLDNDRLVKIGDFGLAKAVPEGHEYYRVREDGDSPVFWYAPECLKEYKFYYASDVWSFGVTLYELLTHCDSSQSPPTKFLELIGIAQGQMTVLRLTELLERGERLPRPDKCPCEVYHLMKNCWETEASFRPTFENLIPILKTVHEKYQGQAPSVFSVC

| Compound | TYK2 MSD OCI-LY10 Dmax % [1] | DC50 [1] [nM] | TYK2 MSD OCI-LY10 Dmax % (OCI-LY10 cells) | DC50 (OCI-LY10 cells) [nM] | Dmax [1] [%] |
| --- | --- | --- | --- | --- | --- |
| CNc1cc(N2CCc3c(-c4ccc(CN5CC6(CCN(C(=O)c7ccc(Cl)c(N8CCC(=O)NC8=O)c7)CC6(F)F)C5)cn4)cccc32)nn2c(C(=O)NC3CC3)cnc12 [I-29] | B (B (90 to >75%)) | < 10 | – | – | – |
| CNc1cc(-c2cn(CC3CCN(CC4CCN(C(=O)c5ccc(Cl)c(N6CCC(=O)NC6=O)c5)CC4)CC3)c3ccccc23)nn2c(C(=O)N[C@@H]3C[C@@H]3F)cnc12 [I-773] | – | – | D (D (<50%)) | > 100 | – |
| CNc1cc(N2CCc3c(-c4ccc(CN5CCC(N6CCC7(CC6)CN(c6ccc8c(c6)n(C)c(=O)n8C6CCC(=O)NC6=O)C7)C(F)(F)C5)cn4)cccc32)nn2c(C(=O)NC3CC3)cnc12 (centres unmarked) [I-47] | B (B (90 to >75%)) | < 10 | – | – | – |
| CNc1cc(N2CCc3c(N4CCN(C5CN(C6CCN(C(=O)c7ccc(Cl)c(N8CCC(=O)NC8=O)c7)CC6)C5)CC4)cccc32)nn2c(C(=O)N[C@@H]3C[C@@H]3F)cnc12 [I-288] | D (D (<50%)) | > 100 | – | – | – |
| CNc1cc(N2CCc3c(-c4ccc(N5CC6(CCN(C(=O)c7ccc(N8CCC(=O)NC8=O)c(Cl)c7)CC6)C5)cn4)cccc32)nn2c(C(=O)N[C@@H]3C[C@@H]3F)cnc12 [I-892] | B (B (90 to >75%)) | < 10 | – | – | – |
| CNc1cc(N2CCc3c(-c4ncc(CN5CC6(CCN(C(=O)c7cc(Cl)c(C)c(N8CCC(=O)NC8=O)c7)CC6(F)F)C5)cc4F)cccc32)nn2c(C(=O)N[C@@H]3C[C@@H]3F)cnc12 [I-1008, 6-(4-(5-((7-(3-chloro-5-(2,4-dioxotetrahydropyrimidin-1(2H)-yl)-4-methylbenzoyl)-5,5-difluoro-2,7-diazaspiro[3.5]nonan-2-yl)methyl)-3-fluoropyridin-2-yl)indolin-1-yl)-N-((1R,2S)-2-fluorocyclopropyl)-8-(methylamino)imidazo[1,2-b]pyridazine-3-carboxamide] | – | < 1 | – | – | > 90 |
| CNc1cc(N2CCc3c(CN4CCC(N5CCC6(CCN(C(=O)c7cc(C)c(Cl)c(N8CCC(=O)NC8=O)c7)CC6)CC5)C(F)(F)C4)cc(F)cc32)nn2c(C(=O)N[C@@H]3CC[C@H]3OC)cnc12 (some centres unmarked) [I-1114] | A (A (>90%)) | < 1 | – | – | – |
| CNc1cc(N2CCc3c(-c4ncc(CN5CC6(CCN(C(=O)c7cc(C)c(Cl)c(N8CCC(=O)NC8=O)c7)CC6(F)F)C5)cc4F)cccc32)nn2c(C(=O)NC3CC3)cnc12 [I-982] | B (B (90 to >75%)) | < 1 | – | – | – |
| CNc1cc(N2CCc3c(-c4ccc(CN5CCC6(CCN(C(=O)c7ccc(C(F)(F)F)c(N8CCC(=O)NC8=O)c7)CC6)C(F)(F)C5)cn4)cccc32)nn2c(C(=O)N[C@@H]3C[C@@H]3F)cnc12 [I-978] | D (D (<50%)) | < 10 | – | – | – |
| CNc1cc(-c2cn(C3CCN(C4CCN(C(=O)c5ccc(Cl)c(N6CCC(=O)NC6=O)c5)CC4)CC3)c3ccccc23)nn2c(C(=O)N[C@@H]3C[C@@H]3F)cnc12 [I-767] | – | – | D (D (<50%)) | > 100 | – |
| CNc1cc(N2CCc3c(N4CCC(CN5CC6(CCN(Cc7ccc(Cl)c(N8CCC(=O)NC8=O)c7)CC6(F)F)C5)CC4)cccc32)nn2c(C(=O)N[C@@H]3C[C@@H]3F)cnc12 [I-899] | D (D (<50%)) | > 100 | – | – | – |
| CNc1cc(N2CCc3c(CN4CCC(N5CC(CN6CCN(c7ccc8c(c7)n(C)c(=O)n8C7CCC(=O)NC7=O)CC6)C5)C(F)(F)C4)cccc32)nn2c(C(=O)N[C@@H]3C[C@@H]3F)cnc12 (some centres unmarked) [I-468] | – | – | B (B (90 to >75%)) | < 1 | – |
| CNc1cc(N2CCc3c2cccc3C23CC(CN4CCN(C5CCN(C(=O)c6ccc(Cl)c(N7CCC(=O)NC7=O)c6)CC5)CC4)(C2)C3)nn2c(C(=O)N[C@@H]3C[C@@H]3F)cnc12 [I-823] | A (A (>90%)) | < 1 | – | – | – |
| CNc1cc(N2CCc3c(-c4ncc(CN5CC6(CCN(C(=O)c7cc(F)c(Cl)c(N8CCC(=O)NC8=O)c7)CC6(F)F)C5)cc4F)cccc32)nn2c(C(=O)N[C@@H]3C[C@@H]3F)cnc12 [I-994] | A (A (>90%)) | < 1 | – | – | – |
| CNC(=O)c1cnc(Nc2ccc(C(=O)NCCOCCOCCOCCOCCN(C(=O)[C@H]3CCCN(c4cncc5ccccc45)C3)c3ccc(=O)n(CC(=O)OC)c3)cn2)cc1Nc1cccc(-c2ncccn2)c1OC [I-912, Methyl (S)-2-(5-(1-(isoquinolin-4-yl)-N-(1-(6-((4-((2-methoxy-3-(pyrimidin-2-yl)phenyl)amino)-5-(methylcarbamoyl)pyridin-2-yl)amino)pyridin-3-yl)-1-oxo-5,8,11,14-tetraoxa-2-azahexadecan-16-yl)piperidine-3-carboxamido)-2-oxopyridin-1(2H)-yl)acetate] | – | > 100 | – | – | < 50 |
| CNc1cc(N2CCc3c(CN4CCC(N5CC(N6CCN(c7cccc8c7n(C)c(=O)n8C7CCC(=O)NC7=O)CC6)C5)C(F)(F)C4)cccc32)nn2c(C(=O)N[C@@H]3C[C@@H]3F)cnc12 (some centres unmarked) [I-471] | – | – | B (B (90 to >75%)) | < 1 | – |
| CNc1cc(N2CCc3c(-c4ccc(OC5CCC6(CC5)CCN(C(=O)c5ccc(Cl)c(N7CCC(=O)NC7=O)c5)CC6)cn4)cccc32)nn2c(C(=O)N[C@@H]3C[C@@H]3F)cnc12 [I-75] | C (C (75 to 50%)) | < 10 | – | – | – |

| Compound | TYK2 MSD OCI-LY10 Dmax % [1] | DC50 [1] [nM] | TYK2 MSD OCI-LY10 Dmax % (OCI-LY10 cells) | DC50 (OCI-LY10 cells) [nM] | Dmax [1] [%] |
| --- | --- | --- | --- | --- | --- |
| CNc1cc(N2CCc3c(-c4ncc(CN5CC6(CCN(C(=O)c7cc(N8CCC(=O)NC8=O)c(Cl)cn7)CC6(F)F)C5)cc4F)cc(F)cc32)nn2c(C(=O)N[C@@H]3CC[C@H]3OC)cnc12 [I-1149] | A (A (>90%)) | < 1 | – | – | – |
| CNc1cc(N2CCc3c(-c4ncc(CN5CC6(CCN(C(=O)c7cc(N8CCC(=O)NC8=O)c(F)cn7)CC6(F)F)C5)cc4F)cc(F)cc32)nn2c(C(=O)N[C@@H]3CC[C@H]3OC)cnc12 [I-1155] | B (B (90 to >75%)) | < 1 | – | – | – |
| CNc1cc(N2CCc3c(CC4CN(C5CCN(C6CCN(C(=O)c7ccc(Cl)c(N8CCC(=O)NC8=O)c7)CC6)CC5(F)F)C4)cccc32)nn2c(C(=O)N[C@@H]3C[C@@H]3F)cnc12 (some centres unmarked) [I-698] | – | – | B (B (90 to >75%)) | < 1 | – |
| COC1(c2cc(-c3ccc(CN4CC5(CCN(C(=O)c6ccc(Cl)c(N7CCC(=O)NC7=O)c6)CC5)C4)cn3)cc(-c3cn(C)c4cnc(NC(C)=O)cc34)n2)CCOC1 (centres unmarked) [I-850] | B (B (90 to >75%)) | < 10 | – | – | – |
| CNc1cc(N2CCc3c(-c4ccc(CN5CCC(N6CCN(c7ccc8c(c7)n(C)c(=O)n8C7CCC(=O)NC7=O)CC6)CC5)cn4)cccc32)nn2c(C(=O)N[C@@H]3C[C@@H]3F)cnc12 (some centres unmarked) [I-1] | B (B (90 to >75%)) | < 1 | – | – | – |
| CNc1cc(N2CCc3c(-c4ccc(N5CCN(CC6CCN(c7ccc(Cl)c(C8CCC(=O)NC8=O)c7)CC6)CC5)cn4)cccc32)nn2c(C(=O)NC3CC3F)cnc12 (mixture of isomers) [I-442] | – | – | C (C (75 to 50%)) | < 10 | – |
| CNc1cc(N2CCc3c(CN4CCC(N5CCC6(CCN(C(=O)c7cc(N8CCC(=O)NC8=O)c(C)c(Cl)c7F)CC6)CC5)C(F)(F)C4)cccc32)nn2c(C(=O)N[C@@H]3CC[C@H]3OC)cnc12 (some centres unmarked) [I-1125] | A (A (>90%)) | < 1 | – | – | – |
| CNc1cc(N2CCc3c(CN4CCC(N5CCC6(CCN(C(=O)c7cc(Cl)c(C)c(N8CCC(=O)NC8=O)c7)CC6)CC5)C(F)(F)C4)cccc32)nn2c(C(=O)NC3CCC3OC)cnc12 (centres unmarked) [I-1000] | A (A (>90%)) | < 1 | – | – | – |
| CNc1cc(N2CC3(CCN(CC4CCN(c5cccc6c5n(C)c(=O)n6C5CCC(=O)NC5=O)CC4)CC3)c3ccccc32)nn2c(C(=O)NC3CC3)cnc12 (centres unmarked) [I-25] | D (D (<50%)) | > 100 | – | – | – |
| CNc1cc(N2CCc3c(-c4ccc(CN5CCC6(CCN(C(=O)c7ccc(Cl)c(N8CCC(=O)NC8=O)c7)CC6)C5)cn4)cccc32)nn2c(C(=O)N[C@H]3C[C@H]3F)cnc12 [I-85] | B (B (90 to >75%)) | < 1 | – | – | – |
| CNc1cc(N2CCc3c(-c4ccc(CN5CCC(Oc6ccc(C7CCC(=O)NC7=O)c(Cl)c6)CC5)cn4)cccc32)nn2c(C(=O)N[C@@H]3C[C@@H]3F)cnc12 (some centres unmarked) [I-387] | B (B (90 to >75%)) | 10 to 100 | – | – | – |
| CNc1cc(N2CCc3c(-c4ccc(CN5CCC(N6CCC(COc7ccc(Cl)c(N8CCC(=O)NC8=O)c7)CC6)CC5)cn4)cccc32)nn2c(C(=O)NC3CCC3OC)cnc12 (centres unmarked) [I-1006] | B (B (90 to >75%)) | < 10 | – | – | – |
| CNc1cc(N2CCc3c(-c4ccc(CN5CCC6(CCN(C(=O)c7ccc(Cl)c(N8CCC(=O)NC8=O)c7)C6)C(F)(F)C5)cn4)cccc32)nn2c(C(=O)N[C@@H]3C[C@@H]3F)cnc12 (some centres unmarked) [I-1082] | B (B (90 to >75%)) | < 1 | – | – | – |
| CNc1cc(N2CCc3c(CN4CC[C@H](N5CCC6(CCN(C(=O)c7ccc(Cl)c(N8CCC(=O)NC8=O)c7)CC6)CC5)C(F)(F)C4)cccc32)nn2c(C(=O)N[C@@H]3C[C@@H]3F)cnc12 [I-715] | – | – | B (B (90 to >75%)) | < 1 | – |
| CNc1cc(N2CCc3c(-c4ccc(CN5CCC6(CCN(C(=O)c7ccc(Cl)c(N8CCC(=O)NC8=O)c7)CC6)C(F)(F)C5)cn4)cccc32)nn2c(C(=O)NC34CC(C3)C4)cnc12 [I-851] | C (C (75 to 50%)) | 10 to 100 | – | – | – |
| CNc1cc(N2CCc3c(-c4cc(CN5CCN(c6ccc7c(c6)n(C)c(=O)n7C6CCC(=O)NC6=O)CC5)ccn4)cccc32)nn2c(C(=O)NC3CC3)cnc12 (centres unmarked) [I-68] | B (B (90 to >75%)) | < 1 | – | – | – |
| CNc1cc(N2CCc3c(-c4ccc(CN5CC6(CCN(Cc7ccc(C)c(N8CCC(=O)NC8=O)c7)CC6(F)F)C5)cn4)cccc32)nn2c(C(=O)N[C@@H]3C[C@@H]3F)cnc12 [I-366] | D (D (<50%)) | < 10 | – | – | – |
